Experimental data from patent US5866597A, “Use of triazine compounds for the treatment of memory and learning disorders” (Glaxo Wellcome Inc., priority 1993, dated 1999).

Tests used:
[1] = tested on: scopolamine-induced deficit in mice; assay: Modified light-dark box memory test in mice, scopolamine-induced deficit, drug given immediately post-training (Table 2); assay type: in vivo, Male albino CD-1 mice; details: for Mean latency Day 1 / Mean latency Day 2: ± SEM
Description: Male albino CD-1 mice obtained from Charles River were used. They were housed under controlled conditions (temperature 21±2 deg. C., humidity approx. 50%, 12 hour light/dark cycle, food and water ad lib) for one week before use. On the day before test, the mice were housed in groups of six in polythene boxes in the laboratory and marked for identification. Food and water were supplied ad lib. On the test day, animals were weighed and then dosed either 30 minutes before test (piracetam, ondansetron) one hour before test (compound A) or immediately after test.
[…] The dose volume was 10 ml/kg for all routes.
The apparatus consisted of two boxes with an opening 90 mm×60 mm at floor level between them. A plastic door was used to close the opening when required. The smaller box (290 mm×120 mm×120 mm high) was made of opaque plastics, open at the top to allow illumination by normal laboratory lighting. The larger box (305 mm square×280 mm high) was enclosed apart from the single opening.
This consisted of training, with retest 24 hours later. During training, animals were placed individually in the open box facing away from the end with the opening. After a period of exploration, they usually entered the dark box and the latency to entry in seconds was noted. The door to the dark box was closed, and after 30 seconds had elapsed, the animal was removed gently and returned to the holding box. Twenty-four hours later, an identical procedure was used, except that the session ended as soon as the animal had entered the dark box. The latency was again noted. During the interval, the animals were not handled, and were disturbed as little as possible. Each animal was used once only.
(§1) Test drugs or control fluids were given before or immediately after the training session.
Group comparisons were made between latencies to enter the dark compartment on the first and second occasions. For both training and retest occasions, comparisons were made between vehicle and treatment groups. The distribution of latencies was skewed on both learning and retest trials (data not shown), so the non-parametric Mann-Whitney U-test was used. The difference between latencies on the two occasions is presented as % decrease on Day 2 compared with Day 1.
The mean latency to enter the dark box±standard error of the mean was calculated from a group of 12 animals. For a given treatment, figures in the columns labelled `Day 1` and `Day 2` show the mean latencies taken from the same group of animals. The difference between data obtained on the two days is illustrated by showing the % decrease, and the data compared using the Mann-Whitney U-test; NS indicates a p value>0.1.

[2] = tested on: scopolamine-induced deficit in rats; assay: Light-dark box memory test in rats, scopolamine-induced deficit, single dose pre-training (Tables 3 and 4); assay type: in vivo, Male Wistar rats; details: for Mean latency Day 1 / Mean latency Day 2: ± SEM
Description: Male Wistar rats obtained from Charles River were used. They were housed under controlled conditions (temperature 21±2 deg. C., humidity approx. 50%, 12 hour light/dark cycle, food and water ad lib) for one week before use. On the day before test the rats were permanently housed in groups of six. Food and water were supplied ad lib. On the test day, animals were weighed and then dosed either 30 minutes before test (midazolam), one hour before test (compound A) or immediately after test.
All drugs were dissolved or suspended in 0.25% (w/v) aqueous celacol, and administered orally (by gavage), i.p. or s.c. The dose volume was 5 ml/kg for all routes.
An identical apparatus to that described in Example 1 was used, except that the smaller box measured 370 mm×260 mm×190 mm.
This consisted of training as described for mice under section (d) of Example 1.
as §1
This was as described under section (e) of Example 1.

[3] = tested on: scopolamine-induced dry mouth in rats; assay: Salivation measurement in rats (Table 6); assay type: in vivo, Male Wistar rats; details: for Mean salivation (blot diameter): ± SEM
Description: 15 minutes before observation. Under these conditions, which were identical to those used in the learning experiments described in Example 2, changes in salivation and pupil diameter were measured. Salivation was measured by placing a piece of folded filter paper in the rat's mouth and measuring the diameter of the blot in mm after 1 minute. Pupil diameter was measured using a magnifying glass and graticule under normal lighting conditions. For both measures, comparisons were made between control and drug-treated groups using a Student's T-test on independent samples.
Groups of 6 animals were used.

[4] = tested on: voltage-sensitive sodium channels; details: Lang et al 1993; Lees and Leach 1993; cited from earlier work
[5] = saline s.c. + compound A 20 mg/kg i.v. post-training
[6] = saline s.c. + compound A 40 mg/kg p.o. post-training
[7] = scopolamine 1 mg/kg s.c. + compound A 20 mg/kg i.v. post-training
[8] = scopolamine 1 mg/kg s.c. + compound A 40 mg/kg p.o. post-training
[9] = saline s.c. + compound A 40 mg/kg p.o.
[10] = scopolamine 0.1 mg/kg s.c. + compound A 10 mg/kg p.o.
[11] = scopolamine 0.1 mg/kg s.c. + compound A 20 mg/kg p.o.
[12] = scopolamine 0.1 mg/kg s.c. + compound A 40 mg/kg p.o.

Nc1nnc(-c2cccc(Cl)c2Cl)c(N)n1 [Compound A, 3,5-Diamino-6-(2,3-dichlorophenyl)-1,2,4-triazine]
Reversal of scopolamine-induced deficit ([1]; compound A 20 mg/kg i.v. post-training): no reversal of the scopolamine-induced deficit
Reversal of scopolamine-induced deficit ([1]; compound A 40 mg/kg p.o. post-training): no reversal of the scopolamine-induced deficit
Difference between days, % Decrease ([1]; saline s.c. + compound A 20 mg/kg i.v. post-training, p (0.09)): 26%
Mean latency Day 1 [1, 5]: 19.9 ± 2.7 s
Mean latency Day 2 [1, 5]: 14.8 ± 2.1 s
Difference between days, % Decrease ([1]; saline s.c. + compound A 40 mg/kg p.o. post-training, p <0.05): 30%
Mean latency Day 1 [1, 6]: 20.0 ± 2.3 s
Mean latency Day 2 [1, 6]: 13.9 ± 1.5 s
Difference between days, % Decrease ([1]; scopolamine 1 mg/kg s.c. + compound A 20 mg/kg i.v. post-training, p NS): -1%
Mean latency Day 1 [1, 7]: 20.0 ± 2.3 s
Mean latency Day 2 [1, 7]: 20.3 ± 2.5 s
Difference between days, % Decrease ([1]; scopolamine 1 mg/kg s.c. + compound A 40 mg/kg p.o. post-training, p NS): -23%
Mean latency Day 1 [1, 8]: 18.5 ± 1.8 s
Mean latency Day 2 [1, 8]: 22.7 ± 2.6 s
Difference between days, % Decrease ([2]; saline s.c. + compound A 40 mg/kg p.o., p <0.001): 50%
Mean latency Day 1 [2, 9]: 38.3 ± 3.8 s
Mean latency Day 2 [2, 9]: 19.3 ± 3.0 s
Difference between days, % Decrease ([2]; scopolamine 0.1 mg/kg s.c. + compound A 10 mg/kg p.o., p NS): 0%
Mean latency Day 1 [2, 10]: 40.8 ± 4.8 s
Mean latency Day 2 [2, 10]: 40.8 ± 4.6 s
Difference between days, % Decrease ([2]; scopolamine 0.1 mg/kg s.c. + compound A 20 mg/kg p.o., p NS*): 16%
Mean latency Day 1 [2, 11]: 37.7 ± 4.4 s
Mean latency Day 2 [2, 11]: 31.7 ± 3.9 s
Difference between days, % Decrease ([2]; scopolamine 0.1 mg/kg s.c. + compound A 40 mg/kg p.o., p <0.01): 45%
Mean latency Day 1 [2, 12]: 38.4 ± 4.1 s
Mean latency Day 2 [2, 12]: 21.1 ± 3.6 s
Mean salivation (blot diameter) ([3]; compound A 10 mg/kg p.o. + saline s.c.): 8.75 ± 1.11 mm
Mean salivation (blot diameter) ([3]; compound A 40 mg/kg p.o. + saline s.c.): 8.25 ± 0.63 mm
Mean salivation (blot diameter) ([3]; compound A 40 mg/kg p.o. + scopolamine 0.1 mg/kg s.c.): 2.13 ± 0.63 mm
Influence on scopolamine-induced change in salivation ([3]; compound A pretreatment, p>0.05 vs vehicle): no influence on the scopolamine-induced changes
Block of voltage-sensitive sodium channels [4]: use-dependent block of voltage-sensitive sodium channels
